Experimental data published in patent US4766116A, “Diaryl butyric acid derivative and pharmaceutical use thereof” (Suntory Limited, priority 1984, dated 1988).
Counter-ions that a name gives are not always drawn.

Legend:
[1] = tested on: lipid peroxides in the blood serum; test: Antilipid Peroxidation Activity (B), lipid peroxides in blood serum of alloxan-injected mice; assay type: in vivo, Male ddY mice; details: ip, 24 hours after alloxan 85 mg/kg
Procedure: (B) Male ddY mice having a body weight of 24 to 27 g were used (i.e., 5 to 9 mice in one group). After 16 to 17 hours nestia, 85 mg/kg of alloxan was rapidly injected into the tail vein of the mice. After injecting the alloxan, the mice were subjected to free feeding and free water intaking and, 24 hours later, the sample compound was intraperitoneally injected into the mice. After an additional 24 hours, anesthesia was applied to the mice with ether and the blood of alvine aorta and cava was sampled. The amounts of the lipid peroxides in the blood serum were quantitatively measured according to a Yagi's method (i.e., K. Yagi, Biochem. Med., 15, 212, 1976).
The results were compared with that of a control group to which only a physiological saline was injected.

Male ddY mice [2] = test: Global Ischemia Activity (gasping time after decapitation); assay type: in vivo; details: for extension of the gasping time: at a dose of 50 mg/kg or less, injected; for minimal effective dose: Mus musculus, ip, 30 minutes before decapitation, vs saline control, read-out: Global Ischemia EDmin (Minimum effective dose)
Procedure: Male ddY mice having a body weight of 22 to 30 g were used (i.e., 6 mice in one group). The sample compound prepared in the Synthesis Example 1 or 7 was intraperitoneally injected into the mice and the mice were decapitated 30 minutes after the injection. After decapitation, the gasping times were determined. The results were compared with a control group to which only the saline was injected.

Male ddY mice [3] = test: Hypobaric Hypoxia Activity (survival time at 180 mmHg); assay type: in vivo; details: for minimal effective dose: Mus musculus, ip, 30 minutes before evacuation to 180 mmHg, vs physiological saline, read-out: Hypobaric Hypoxia EDmin (Minimum effective dose)
Procedure: Male ddY mice having a body weight of 22 to 30 g were used (i.e., 7 to 10 mice in one group). The mice were […] sample compound prepared in the Synthesis Example 1 or 7 was intraperitoneally injected into the mice. The desiccator was evacuated 30 minutes after the injection and the time from the start of the evacuation to the termination of breathing by the mice was determined to be the survival time. If a mouse was still alive 15 minutes after exposure to the hypoxia, the survival time was assumed to be 15 minutes.

Male ddY mice [4] = test: Normobaric Hypoxia Activity (survival time in 96% N2 and 4% O2); assay type: in vivo; details: ip, 30 minutes before
Procedure: Male ddY mice having a body weight of 22 to 30 g were used (i.e., 7 to 10 mice in one group). The sample compound prepared in the Synthesis Example 1 or 7 was intraperitoneally injected into the mice and, 30 minutes later, the mice were placed in a desiccator having a volume of about 1 liter and filled with a gas mixture of 96% N2 and 4% O2. The survival time up to the termination of breathing by the mice was determined. During the test, the N2 --O2 gas mixture was continuously supplied at a rate of 3 l/min. When the survival time was more than 15 minutes, the survival time was assumed to be 15 minutes. The results were compared with a control group, to which only a physiological saline was injected.

Male mice = test: Hemicholinium No. 3 (HC-3) Induced Anoxia Activity (survival time); assay type: in vivo; details: Mus musculus; ip, 15 minutes before 5 mg/kg hemicholinium No. 3 into tail vein; read-out: HC-3 Induced Anoxia EDmin (Minimum effective dose)
Procedure: Male mice having a body weight of 22 to 30 g were used (i.e., 7 to 10 mice in one group). The sample compound prepared in the Synthesis Example 1 or 7 was intraperitoneally injected into the mice and, 15 minutes later, 5 mg/kg of hemicholinium No. 3 was injected into the tail vein of the mice. The time from the injection of hemicholinium No. 3 to the termination of breathing by the mice was determined to be the survival time. The results were compared with that of a control group to which only a physiological saline was injected.

rat brain homogenate = test: Antilipid Peroxidation Activity (A), rat brain homogenate, TBA reaction; assay type: biochemical, Male Wister rats; details: at 10^-4 M, 37° C., 30 minutes
Procedure: (A) Male Wister rats having a body weight of 350 to 380 g were used. A rat was decapitated and the whole brain other than the cerebellum was homogenized in 10 times volume of ice cooled 50 mM buffered saline (PBS) having a pH of 7.4. The homogenized mixture was then centrifugally separated and the resultant supernatant frozen at a temperature of -30° C. The frozen specimen was melted in flowing water and was then diluted with 3 times volume PBS to prepare the diluted homogenate.
A 10 μl of a solution of the sample compound prepared in the Synthesis Example 1 or 7 was added to 1 ml of the diluted homogenate obtained above and the mixture was incubated at a temperature of 37° C. for 30 minutes. […]
As is the case of the test compound solution, 10 μl of the standard solution of tetramethoxypropane (TMP) was prepared and was added to the reaction mixture in amounts of 0 to 10 nmole/tube. […] Thereafter, the resultant layers were stabilized for 10 minutes at 2,000 rpm and the absorbance of the organic layer at 532 nm or the fluorescence intensity of the organic layer at 553 nm (excited at 515 nm) were determined. The lipid peroxide content was determined and represented a nmole number of malon dialdehyde (MDA) per mg of protein. The protein was determined by a Lawry method (i.e., Lawry et al., J. Biol. Chem., 193, 265 (1951)).

Male ddY mice [5] = test: Scopolamine Amnesia Activity (step-through passive avoidance learning); assay type: in vivo; details: Mus musculus; ip immediately after first session; scopolamine 0.5 mg/kg hypodermically; retention test 24 hours later; read-out: Scopolamine Amnesia EDmin (Minimum effective dose)
Description: Ten male ddY mice having a body weight of 22 to 30 g were used as one group. A slit was located between a light room and a dark room. In the dark room, an arrangement was made whereby an electric shock was given to the feet by an electric current. Thus, the behavior of the mice in relation to step-through to the dark room was studied. The mice were amnesically treated with an administration of scopolamine with or without the injection of the sample compound 1 or 7 and the time taken to avoid step-through by the mice to the dark room was determined by the so-called step-through passive avoidance learning method. The electric current used was 0.6 mA. The scopolamine was hypodermically injected in an amount of 0.5 mg/kg at 20 minutes prior to the first session and the sample compound was intraperitoneally injected immediately after the first session. The retention test (i.e., the second session) was carried out 24 hours later.

Row | SMILES | inhibition of the formation of the lipid peroxides ([1]; at a dose of 50 mg/kg) | inhibition of the formation of the lipid peroxides ([1]; at a dose of 10 mg/kg) | extension of the gasping time (Male ddY mice [2]) | further results
1 | COc1ccc(O)c(C(CCC(=O)NN2CCOCC2)c2ccccc2)c1 (stereo not shown) [Example 12] | significant difference in the inhibition of the formation of the lipid peroxides | – | – | –
2 | COc1ccc(O)c(C(CCC(=O)N2CCNCC2)c2ccccc2)c1 (stereo not shown) [Example 28, 4-(2-hydroxy-5-methoxy)phenyl-4-phenyl-1-piperazinyl-1-oxobutane] | significant difference in the inhibition of the formation of the lipid peroxides | – | – | –
3 | COc1ccc(O)c(C(CCC(=O)OCCN(C)C)c2ccccc2)c1 (stereo not shown) [Example 36, 4-(2-hydroxy-5-methoxy)phenyl-4-phenyl-1-(2-dimethylamino)ethyloxy-1-oxybutane] | – | caused inhibition | – | –
4 | COc1ccc(O)c(C(CCC(=O)NCc2ccccn2)c2ccccc2)c1 (stereo not shown) [Example 9] | – | caused inhibition | – | –
5 | COc1ccc(O)c(C(CCC(=O)N2CCCN(C(=O)CCC(c3ccccc3)c3cc(OC)ccc3O)CC2)c2ccccc2)c1 (stereo not shown) [Example 31, N,N'-bis-[(4-(2-hydroxy-5-methoxy)phenyl-4-phenyl)-1-oxobutyl]homopiperazine] | significant difference in the inhibition of the formation of the lipid peroxides | – | – | –
6 | COc1ccc(O)c(C(CCC(=O)NCCN2CCN(C(=O)CCC(c3ccccc3)c3cc(OC)ccc3O)CC2)c2ccccc2)c1 (stereo not shown) [Example 33, 4-(2-hydroxy-5-methoxy)phenyl-1-[4-(2-(4-(2-hydroxy-5-methoxy)phenyl-4-phenyl-1-oxo)aminoethyl)piperadinyl]-1-oxobutane] | significant difference in the inhibition of the formation of the lipid peroxides | – | significant difference in the extension of the gasping time | extension of the survival time (hypobaric hypoxia) (Male ddY mice [3]; at a dose of 50 mg/kg or less, injected): significant difference in the extension of the survival time
7 | COc1ccc(O)c(C(CCC(=O)N2CCCC2)c2ccccc2)c1 (stereo not shown) [Example 13] | significant difference in the inhibition of the formation of the lipid peroxides | – | – | –
8 | COc1ccc(O)c(C(CCC(=O)N2CCN(c3ccccc3)CC2)c2ccccc2)c1 (stereo not shown) [Example 4] | – | caused inhibition | – | –
9 | COc1ccc(O)c(C(CCC(=O)N2CCCN(C)CC2)c2ccccc2)c1 (stereo not shown) [Example 18] | significant difference in the inhibition of the formation of the lipid peroxides | – | – | –
10 | COc1ccc(O)c(C(CCC(=O)N2CCN(CCO)CC2)c2ccccc2)c1 (stereo not shown) [Example 7] | – | – | – | minimal effective dose (Male ddY mice [2]): 50 mg/kg; minimal effective dose (Male ddY mice [3]): 50 mg/kg; Normobaric Hypoxia EDmin (Minimum effective dose) (Male ddY mice [4]): Inactive at 50 mg/kg, ip; minimal effective dose (Male mice): 25 mg/kg; Antilipid Peroxidation, % inhibition of the rat brain homogenate (rat brain homogenate): 88.0%; minimal effective dose (Male ddY mice [5]): 25 mg/kg
11 | COc1ccc(O)c(C(CCC(=O)N(C)Cc2ccccc2)c2ccccc2)c1 (stereo not shown) [Example 6] | – | caused inhibition | significant difference in the extension of the gasping time | –
12 | COc1ccc(O)c(C(CCC(=O)N2CCN(C(=O)CCC(c3ccccc3)c3cc(OC)ccc3O)CC2)c2ccccc2)c1 (stereo not shown) [Example 29, N,N'-bis[(4-(2-hydroxy-5-methoxy)phenyl-4-phenyl)-1-oxobutyl]piperazine] | – | caused inhibition | – | –
13 | COc1ccc(O)c(C(CCC(=O)N2CCCNCC2)c2ccccc2)c1 (stereo not shown) [Example 30, 4-(2-hydroxy-5-methoxy)phenyl-4-phenyl-1-homopiperazinyl-1-oxobutane] | – | – | significant difference in the extension of the gasping time | –
14 | CCOC(=O)c1ccc(Oc2cccc(OC)c2)c(NC(=O)CCC(c2ccccc2)c2cc(OC)ccc2O)c1 (stereo not shown) [Example 15] | – | – | significant difference in the extension of the gasping time | –
15 | COc1ccc(O)c(C(CCC(=O)N2CCCCC2)c2ccccc2)c1 (stereo not shown) [Example 3] | significant difference in the inhibition of the formation of the lipid peroxides | – | – | –
16 | COc1ccc(O)c(C(CCC(=O)NCCN2CCNCC2)c2ccccc2)c1 (stereo not shown) [Example 32] | – | – | significant difference in the extension of the gasping time | –
17 | COc1ccc(O)c(C(CCC(=O)N2CCN(C)CC2)c2ccccc2)c1 (stereo not shown) [Example 1, 4-(2-hyddroxy-5-methoxy)phenyl-4-phenyl-1-(4-methyl)piperazinyl-1-oxobutane] | – | caused inhibition | – | minimal effective dose (Male ddY mice [2]): 25 mg/kg; minimal effective dose (Male ddY mice [3]): 50 mg/kg; minimal effective dose (Male ddY mice [4]; Mus musculus, read-out: Normobaric Hypoxia EDmin (Minimum effective dose)): 50 mg/kg; minimal effective dose (Male mice): 50 mg/kg; Antilipid Peroxidation, % inhibition of the rat brain homogenate (rat brain homogenate): 95.4%; minimal effective dose (Male ddY mice [5]): 50 mg/kg
18 | COc1ccc(O)c(C(CCC(=O)N2CCSCC2)c2ccccc2)c1 (stereo not shown) [Example 8] | – | – | – | inhibition of the formation of the lipid peroxides ([1]; at a dose of 5 mg/kg): caused inhibition
19 | COc1ccc(O)c(C(CCC(=O)NCCN2CCCCC2)c2ccccc2)c1 (stereo not shown) [Example 19, 4-(2-hydroxy-5-methoxy)phenyl-4-phenyl-1-(2-piperidinyl)ethylamino-1-oxobutane hydrochloride] | – | – | significant difference in the extension of the gasping time | survival time (hypobaric hypoxia) compared with the control group (Male ddY mice [3]; dose not clearly stated): reduced the survival time
